Measured values as given in patent US20260248923A1, “BI-SPECIFIC ADAPTERS AND THEIR USE WITH UNIVERSAL CAR-T CELLS IN THE TREATMENT OF TUMORS AND THE INHIBITION OF CANCER-ASSOCIATED FIBROBLASTS” (priority 2023, published 2026).
Like-named read-outs stand apart in the source and are kept apart here.

Tests used:
PSMA [1] = molecular target: T1, PSMA (Homo sapiens, UniProt Q04609); assay: Binding to MDA-PSMA cells by flow cytometry (MFI of FITC)
T1 construct: expressed in transfected cells; host or cells: MDA-MB-231 (MDA-PSMA / PSMA+ MDA-MB-231)
Experimental: (§1) MDA-PSMA cells (0.2 million) were incubated with 2-fold serial diluted adapters starting from 500 nM in complete RPMI medium (RPMI+10% FBS) for 1 hour at room temperature. Cells were washed twice with 2% FBS in PBS and resuspended in the same buffer. Fluorescent intensity of fluorescein isothiocyanate (FITC) was analyzed by flow cytometer.
MDA-PSMA cells (0.2 million) were incubated with 1 μM of DUPA-FITC conjugates with different PEG linkers in complete RPMI medium (RPMI+10% FBS) for 1 hour at room temperature. Free compounds were washed away, and fluorescent intensity of FITC was analyzed by flow cytometer. To analyze the surface exposure of FITC moiety, the stained cells were incubated with APC-anti-FITC on ice for 30 minutes.
as §1, with “FITC” for “fluorescein isothiocyanate (FITC)”

22Rv1 cells [2] = assay: 22Rv1 / anti-FITC CAR T co-culture, 48 hours; assay type: cell-based
Experimental: The number of 22Rv1 cells was counted at the end of the co-culture. The cytotoxicity of anti-FITC CAR T cells was calculated using the formula: (number of untreated 22Rv1 cells−number of treated 22Rv1 cells)/number of untreated 22Rv1 cells*100%. Concentrations of IFNγ in the co-culture medium were analyzed by ELISA using human IFNγ ELISA kit (Biolegend).

[3] = system: MDA-PSMA tumors (high PSMA level); assay: MDA-PSMA tumor in NSG mice with anti-FITC CAR T-cells; settings: for eradication of MDA-PSMA tumors: 10 million anti-FITC CAR T-cells
Experimental: MDA-PSMA cells (high PSMA level; 5 million cells) were implanted into each NSG mouse by subcutaneous injection. […] The tumor volume and body weight were monitored regularly. Tumor volume was calculated using the formula: (length*width^2)/2. […] MDA-PSMA cells (5 million) were implanted into each NSG mouse by subcutaneous injection. […] The volumes of the tumors and the body weights of the mice were monitored regularly. Tumor volume was calculated using the formula: (length*width^2)/2.

MDA-PSMA cells = assay: Retention in MDA-PSMA cells in vitro (confocal, flow cytometry); assay type: cell-based; settings: 1 μM one hour, washed, 37 C
Experimental: (§2) Unbound compounds were washed away, and the cells were cultured in RPMI containing 10% FBS at 37° C. with 5% CO2. At indicated time points, the cells were imaged under a confocal microscope to analyze the intensity and location of FITC. […] To analyze the surface-bound FITC, the cells were stained with APC-anti-FITC antibody for 30 minutes on ice at different time points. The fluorescence intensity of APC was analyzed by flow cytometer.

22Rv1 cells [4] = assay: Retention in 22Rv1 cells in vitro; assay type: cell-based; settings: 1 μM one hour, washed, 37 C
Experimental: as §2

MDA-MB-231-PSMA tumors = assay: Fluorescent imaging of MDA-PSMA tumor bearing mice; assay type: in vivo; settings: 500 nmol/kg intravenously
Excerpt: MDA-PSMA tumor bearing mice were intravenously injected with the indicated adapters at 500 nmol/kg. Fluorescent images of the mice were taken in the Spectral Ami imaging system at the indicated time points after injection.

22Rv1 tumor = 22Rv1 tumor in NSG mice with anti-FITC CAR T cells; assay type: in vivo; settings: 10 million anti-FITC CAR T cells
[5] = system: TagCAR (universal anti-fluorescein CAR); assay: Competition assay against FL-AF647 on TagCAR T cells; assay type: binding; settings: Ki=IC50/(1+[S]/Km), [FL-AF647]=100 nM, triplicates from different donors; read-out: mean calculated inhibitor constant (Ki)
Experimental: PSMAL1-PEG6-FITC strongly binds to TagCAR T cells generated using TagCAR lentiviral particles. […] Due to fluorescein fluorescence being quenched when bound by TagCAR, TagCAR T cells were instead incubated with saturating levels of FL-AF647, which was then competed off by increasing concentrations of PSMAL1-PEG6-FITC. As compared to the antigen-only control sodium fluorescein (NaFL), lower concentrations of PSMAL1-PEG6-FITC were necessary to compete with FL-AF647, as detected by the mean fluorescent intensity (MFI) of FL-AF647.

PSMA [6] = molecular target: T1, PSMA; assay: SurfaceTag on-cell binding to PSMA+ MDA-MB-231 tumor cells
Experimental: PSMAL1-PEG6-FITC strongly localizes on the surface of PSMA-positive tumor cells. To characterize the on-cell binding affinity of PSMAL1-PEG6-FITC to PSMA-expressing tumor cells, different concentrations of PSMAL1-PEG6-FITC were incubated with […] tumor cells that either over-expressed PSMA (PSMA^+) or were wildtype (PSMA−). Levels of surface fluorescein antigen on MDA-MB-321 tumor cells were detected using an anti-fluorescein antibody (FIG. 44A).

[7] = system: PSMA+ MDA-MB-231 tumor cells; assay: TagCAR T cell coculture with PSMA-overexpressing MDA-MB-231 tumor cells; assay type: cell-based
Experimental: PSMAL1-PEG6-FITC elicits dose-dependent TagCAR T cell function in vitro. The efficacy of TagCAR T cells generated as described in Example 42 mediated by PSMAL1-PEG6-FITC on PSMA-positive tumor cells was investigated in vitro. The normalized fold tumor cell growth of PSMA-overexpressing (PSMA^+) MDA-MB-231 tumor cells was measured every four hours during an 88-hour coculture of PSMA^+ MD-MB-231 tumor cells and different concentrations of PSMAL1-PEG6-FITC in the presence of TagCAR T cells generated as described in Example 42.
In addition, cytokine levels were measured in culture supernatants 24 hours following the addition of TagCAR T cells generated as described in Example 42 and different concentrations of PSMAL1-PEG6-FITC to PSMA MD-MB-231 tumor cells.
The presence of TagCAR+ cells (FIG. 45C) and presence of CD25+(FIG. 45D) in CD3+ T cells were also measured after 88 hours of coculture with PSMA^+ MDA-MB-231 tumor cells with different concentrations of PSMAL1-PEG6-FITC. CD3+ T cells with TagCAR had higher percentages of CD25+ as compared to CD3+ T cells without TagCAR.

[8] = system: MDA-MB-231-PSMA tumor cells; assay: Total and surface retention of adapters on MDA-PSMA tumor cells in vivo (flow cytometry)
Experimental: (§3) The mice were euthanized at the indicated time points after injection. Tumors were dissected and dissociated into single cells. Fluorescent intensity of FITC indicating the total retention of the adapters in the tumor cells were analyzed by flow cytometry. To analyze the surface retention of the adapters on the tumor cell surface, the dissociated tumor cells were stained with APC-anti-FITC antibody, and the fluorescent intensity of APC was analyzed by flow cytometry.

[9] = system: MDA-MB-231-PSMA tumor cells; settings: mouse, in vivo
Experimental: as §3

T1 sequence (Q04609 whole entry): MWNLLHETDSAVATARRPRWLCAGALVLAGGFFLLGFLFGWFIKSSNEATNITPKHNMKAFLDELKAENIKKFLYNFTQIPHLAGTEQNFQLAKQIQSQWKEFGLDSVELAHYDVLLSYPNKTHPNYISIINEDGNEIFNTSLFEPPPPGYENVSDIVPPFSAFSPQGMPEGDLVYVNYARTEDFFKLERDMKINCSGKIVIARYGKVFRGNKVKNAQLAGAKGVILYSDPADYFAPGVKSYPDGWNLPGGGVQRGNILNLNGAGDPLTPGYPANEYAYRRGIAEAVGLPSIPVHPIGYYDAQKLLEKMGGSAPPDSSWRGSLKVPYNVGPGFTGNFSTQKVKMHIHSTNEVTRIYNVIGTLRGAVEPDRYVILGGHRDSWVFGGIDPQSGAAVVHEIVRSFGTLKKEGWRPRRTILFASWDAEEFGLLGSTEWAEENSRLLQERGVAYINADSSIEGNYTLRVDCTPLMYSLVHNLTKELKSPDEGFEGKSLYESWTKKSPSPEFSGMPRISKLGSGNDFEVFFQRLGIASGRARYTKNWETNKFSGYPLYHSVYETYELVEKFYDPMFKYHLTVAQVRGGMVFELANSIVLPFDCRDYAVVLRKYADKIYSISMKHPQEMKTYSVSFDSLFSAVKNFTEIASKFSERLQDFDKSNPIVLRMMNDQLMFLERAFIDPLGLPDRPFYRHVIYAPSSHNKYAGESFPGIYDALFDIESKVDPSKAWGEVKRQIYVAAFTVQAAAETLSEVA

With `O=C(O)CC[C@H](NC(=O)N[C@@H](CCCCNC(=O)[C@H](Cc1ccc2ccccc2c1)NC(=O)[C@H]1CC[C@H](CNC(=O)CCOCCOCCOCCOCCOCCOCCNC(=S)Nc2ccc(-c3c4ccc(=O)cc-4oc4cc(O)ccc34)c(C(=O)O)c2)CC1)C(=O)O)C(=O)O` [PSMAL1-PEG6-FITC] the “binding affinity relative to DUPA-PEG6-FITC” value (PSMA [1]) was “five-fold higher”, the “binding affinity and total binding (MFI of FITC)” value (PSMA [1]; 1 hour room temperature) was “Higher Binding Affinity and Higher Total Binding than DUPA-PEG6-FITC” and the “lysis of 22Rv1 cells by anti-FITC CAR-T cells” value (22Rv1 cells [2]; low concentration) was “much higher than DUPA-PEG6-FITC at low concentration”. For the same compound, the “IFNγ secreted by anti-FITC CAR-T cells” value (22Rv1 cells [2]; low concentrations) was “higher than DUPA-PEG6-FITC at low concentrations”, the “eradication of MDA-PSMA tumors” value [3] was “good efficacy on eliminating MDA-PSMA tumors” and the body weight loss ([3]; during treatment) was “no body weight loss was observed”. The “retention in MDA-MB-231-PSMA cells (confocal images)” value (MDA-PSMA cells) was “stayed longer in MDA-MB-231-PSMA cells than DUPA-PEG6-FITC”, the “retention in MDA-PSMA cells expressing different levels of PSMA (flow cytometry)” value (MDA-PSMA cells) was “stayed longer in MDA-PSMA cells expressing different levels of PSMA than DUPA-PEG6-FITC” and the “retention in 22Rv1 cells (flow cytometry)” value (22Rv1 cells [4]) was “stayed longer in 22Rv1 cells”. The “retention in MDA-MB-231-PSMA tumors (fluorescent images)” value (MDA-MB-231-PSMA tumors) was “Better Retention in MDA-MB-231-PSM4 Tumors than DUPA-PEG6-FITC and DUPA-FITC”, the “growth of 22Rv1 tumor” value (22Rv1 tumor) was “inhibited the growth of 22Rv1 tumor significantly” and the Ki [5] was 9.9 nM. For the same compound, the “Bmax (total antigen amount)” value (PSMA [6]; PSMA+ tumor cells) was 2.6×10^6 MFI, the Kd (PSMA [6]; PSMA+ tumor cells, anti-fluorescein antibody, read-out: Kd (on-cell binding affinity)) was 1.29 nM and the “localization on surface of PSMA-expressing tumor cells” value (PSMA [6]; PSMA+ vs PSMA- cells) was “specifically localized on the surface of PSMA-expressing tumors”. The “normalized fold tumor cell growth” value ([7]; 88-hour coculture with TagCAR T cells) was “tumor size decreased”, the “IFNg and IL-2 levels in culture supernatants” value ([7]; 24 hours) was “increased with increasing doses” and the “tumor cells that retained adapter on the surface” value ([8]; 48 hours post-injection) was 65%. The “tumor cells that still had adapter in the cells (total FITC)” value ([8]; 48 hours post-injection) was 77%, the “tumor cells that retained adapter (total FITC)” value ([8]; 144 hours post-injection) was 45% and the “tumor cells that retained adapter on the surface” value ([8]; 144 hours post-injection) was 34%.
In the case of `CC(C)(C)OC(=O)CC[C@H](NC(=O)N[C@@H](CCC(=O)OCc1ccccc1)C(=O)OC(C)(C)C)C(=O)OC(C)(C)C` (stereo in doubt) [DUPA-PEG6-FITC, 2-[3-(3-Benzyloxycarbonyl-1-tert-butoxycarbonyl-propyl)-ureido]pentanedioic Acid Di tert-butyl Ester], the “eradication of MDA-PSMA tumors” value [3] is reported as “good efficacy on eliminating MDA-PSMA tumors”, the body weight loss ([3]; mouse, in vivo) is reported as “no body weight loss was observed” and the “growth of 22Rv1 tumor” value (22Rv1 tumor) is reported as “didn't show much efficacy”. The “tumor cells that retained adapter on the surface” value [9] was 9% and the “tumor cells that still had adapter in the cells (total FITC)” value [9] was 13%.
